Assays:
[1] = molecular target: T1, Retinoic acid receptor alpha [200-419] (Homo sapiens, UniProt P10276); test: Competitive Assay; conditions: pH 8; 4 °C
T1 construct: 200-419
T1 sequence (P10276 whole entry): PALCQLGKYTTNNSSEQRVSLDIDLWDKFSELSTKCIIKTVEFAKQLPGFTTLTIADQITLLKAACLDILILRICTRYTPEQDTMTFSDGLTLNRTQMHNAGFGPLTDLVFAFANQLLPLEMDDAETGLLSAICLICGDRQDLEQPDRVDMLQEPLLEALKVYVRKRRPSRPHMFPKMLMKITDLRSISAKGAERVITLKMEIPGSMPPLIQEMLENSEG
Protocol: (§1) Competitive assay were perform with 5nM tritiated all-trans retinoic acid (t-RA; 5nM) with or without 100-fold excess of non-radioactive t-RA (500nM).

[2] = molecular target: T2, Retinoic acid receptor alpha [200-419]/gamma [183-417] (Homo sapiens, UniProt P10276+P13631); test: Competitive Assay; conditions: pH 8; 4 °C
T2 construct: 200-419; 183-417
T2 sequence (P13631 whole entry): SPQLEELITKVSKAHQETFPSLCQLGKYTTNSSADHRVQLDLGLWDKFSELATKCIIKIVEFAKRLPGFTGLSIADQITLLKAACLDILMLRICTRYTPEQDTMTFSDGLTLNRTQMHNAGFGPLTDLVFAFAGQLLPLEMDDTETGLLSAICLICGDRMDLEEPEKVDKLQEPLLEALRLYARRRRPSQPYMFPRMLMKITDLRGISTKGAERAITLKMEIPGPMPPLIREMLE
T2 sequence (P10276 whole entry): T1 sequence (P10276 whole entry)
Protocol: as §1

| Compound | Ki [1] [nM] | Ki [2] [nM] |
| --- | --- | --- |
| CC1(C)CC=C(c2cnc3ccccc3c2)c2cc(C(=O)Nc3ccc(C(=O)O)cc3)ccc21 [BMS614] | 2.5 | 1 |
| CC1(C)C(=O)C(C)(C)c2cc(C(=O)Nc3ccc(C(=O)O)cc3)ccc21 [BMS753] | 2 | 1 |

Source: BindingDB's records for doi:10.1016/S1074-5521(99)80084-2 (Institute of Genetics and Molecular and Cellular Biology …, 1999)
